The target in assay [1] is T1, Full length WRN protein (aa 2-1432) (Homo sapiens (Human), UniProt Q14191). In words: WRN ATPase ADP-Glo biochemical assay, Assay Format A (10 μM ATP). The settings on record: 0.25 nM WRN, 100 nM C6.18 ssDNA, 30 min preincubation, read-out: ATPase ADPGlo AC50 (uM)- Assay Format A. In short, it runs like this:
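Sf9-expressed FLAG-AVI-TEV-tagged WRN (0.5 nM) preincubated 30 min with compound (11-point 3-fold dilution). Reaction started with 200 nM C6.18 39-mer ssDNA and 20 μM ATP (addition concentrations), run 30 min at room temperature. ADP measured by ADP-Glo luminescence; IC50 from four-parameter fit, geometric mean of ≥2 runs.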
On the technique in general: ADP-Glo turns the ADP formed in a reaction into a luminescent signal.

Assay [2] deals with T1, Full length WRN protein (aa 2-1432). In words: WRN ATPase ADP-Glo biochemical assay, Assay Format B (100 μM ATP). The settings on record: 0.25 nM WRN, 100 nM C6.18 ssDNA, 60 min preincubation, read-out: ATPase ADPGlo AC50 (uM)- Assay Format B.
For another assay, the system named is HCT116 cells. Kind of assay: HCT116 (MSI) 7 day viability, CellTiter Glo. Type of assay: cell-based. The following applies: Homo sapiens, HCT-116, 168 h, 7 days, read-out: HCT116 (MSI) Viability 7 Day Abs AC50. In short, it runs like this:
(§1)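 Seven-day viability is assessed with CellTiter Glo after compounds, diluted in ten 3-fold steps in DMSO, are exposed to HCT116 (50 cells/well) or HT29 (500 cells/well). Reported IC50 is the geometric mean of at least two independent runs.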

A further assay has as its system HT29 cells. In words: HT29 (MSS) 7 day viability, CellTiter Glo. Type of assay: cell-based. The settings on record: Homo sapiens, HT-29, 168 h, 7 days, read-out: HT29 (MSS) Viability 7 Day CTGAbs AC50. The procedure, abridged:
as §1
A general note: Cellular ATP, detected with luciferase, serves as a proxy for viable cell number.

Molecules are shown by their SMILES. Bounds are passed on as bounds.

Broadly, the AC50 is the midpoint of the concentration-response curve, whichever way the signal moves.

T1 sequence (Q14191 2-1432): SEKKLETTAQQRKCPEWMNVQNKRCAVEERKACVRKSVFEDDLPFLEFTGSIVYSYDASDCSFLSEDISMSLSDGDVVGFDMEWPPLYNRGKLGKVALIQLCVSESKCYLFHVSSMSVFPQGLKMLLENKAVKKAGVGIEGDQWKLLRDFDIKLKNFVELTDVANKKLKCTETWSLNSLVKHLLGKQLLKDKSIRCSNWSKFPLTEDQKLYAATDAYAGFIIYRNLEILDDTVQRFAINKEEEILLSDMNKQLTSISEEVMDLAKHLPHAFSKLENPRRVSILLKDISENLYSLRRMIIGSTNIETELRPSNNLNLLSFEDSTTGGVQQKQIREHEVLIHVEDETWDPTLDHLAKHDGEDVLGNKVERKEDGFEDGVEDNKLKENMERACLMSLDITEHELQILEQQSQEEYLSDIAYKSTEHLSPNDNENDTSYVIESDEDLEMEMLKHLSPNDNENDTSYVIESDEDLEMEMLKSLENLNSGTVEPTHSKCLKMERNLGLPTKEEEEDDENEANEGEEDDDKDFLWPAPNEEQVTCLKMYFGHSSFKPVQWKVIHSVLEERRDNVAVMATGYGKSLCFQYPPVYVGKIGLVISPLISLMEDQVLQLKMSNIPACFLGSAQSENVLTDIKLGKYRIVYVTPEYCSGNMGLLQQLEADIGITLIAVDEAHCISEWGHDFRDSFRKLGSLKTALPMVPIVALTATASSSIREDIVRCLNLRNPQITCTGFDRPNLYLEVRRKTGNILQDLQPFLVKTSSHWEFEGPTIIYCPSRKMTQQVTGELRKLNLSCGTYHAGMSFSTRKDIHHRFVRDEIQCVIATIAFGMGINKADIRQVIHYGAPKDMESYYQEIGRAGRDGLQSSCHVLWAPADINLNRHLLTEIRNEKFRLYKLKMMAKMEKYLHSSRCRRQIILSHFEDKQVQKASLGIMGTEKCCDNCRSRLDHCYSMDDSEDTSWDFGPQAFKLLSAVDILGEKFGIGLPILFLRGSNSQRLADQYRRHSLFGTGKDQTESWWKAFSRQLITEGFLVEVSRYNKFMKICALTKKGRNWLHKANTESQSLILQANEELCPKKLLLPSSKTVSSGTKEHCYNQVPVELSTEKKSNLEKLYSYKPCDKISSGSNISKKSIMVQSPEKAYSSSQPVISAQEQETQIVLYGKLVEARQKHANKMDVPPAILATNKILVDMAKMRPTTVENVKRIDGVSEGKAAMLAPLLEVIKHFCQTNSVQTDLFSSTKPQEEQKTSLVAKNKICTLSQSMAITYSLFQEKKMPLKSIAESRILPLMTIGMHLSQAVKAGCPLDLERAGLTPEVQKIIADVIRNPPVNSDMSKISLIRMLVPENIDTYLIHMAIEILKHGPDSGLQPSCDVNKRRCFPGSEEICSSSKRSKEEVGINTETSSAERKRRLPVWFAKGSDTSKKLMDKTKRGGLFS

Turning to `C=CC(=O)N1CCc2nn(-c3ccc(C4CCC4)c(F)c3O)c3c2C(C1)N(C(=O)c1cnc(C(F)(F)F)cc1N)CC3` (centres unmarked) [Compound 139, 1-(5-(4-amino-6-(trifluoromethyl)nicotinoyl)-2-(4-cyclobutyl-3-fluoro-2-hydroxyphenyl)-2,3,4,5,5a,6,8,9-octahydro-7H-1,2,5,7-tetraazabenzo[cd]azulen-7-yl)prop-2-en-1-one], the concentration at half-maximal activity (AC50) in assay [1] is less than 0.0015 µM; in assay [2], 0.005 to 0.015 µM; in the assay on HCT116 cells, 1 to 100 nM; in the assay on HT29 cells, more than 3000 nM.
In the same order, the values of `C=CC(=O)N1CCc2nn(-c3ccc(C4CCC4)c(F)c3O)c3c2C(C1)N(C(=O)c1cnc(C(F)(F)F)c(O)c1)CC3` (centres unmarked) [Compound 141, 1-(2-(4-cyclobutyl-3-fluoro-2-hydroxyphenyl)-5-(5-hydroxy-6-(trifluoromethyl)nicotinoyl)-2,3,4,5,5a,6,8,9-octahydro-7H-1,2,5,7-tetraazabenzo[cd]azulen-7-yl)prop-2-en-1-one] are less than 0.0015 µM, 0.005 to 0.015 µM, 1 to 100 nM and more than 3000 nM.
In the same order, the values of `C=CC(=O)N1CCc2nn(-c3ccc(C4CCC4)cc3O)c3c2C(C1)N(C(=O)c1ncc(C(F)(F)F)cc1N)CC3` (centres unmarked) [Compound 142, 1-(5-(3-amino-5-(trifluoromethyl)picolinoyl)-2-(4-cyclobutyl-2-hydroxyphenyl)-2,3,4,5,5a,6,8,9-octahydro-7H-1,2,5,7-tetraazabenzo[cd]azulen-7-yl)prop-2-en-1-one] are less than 0.0015 µM, 0.015 to 0.055 µM, 1 to 100 nM and more than 3000 nM.
In the same order, the values of `C=CC(=O)N1CCc2nn(-c3ccc(C4CC4)cc3O)c3c2C(C1)N(C(=O)c1ccc(Br)c2[nH]c(C(F)F)nc12)CC3` (centres unmarked) [Compound 143, 1-(5-(7-bromo-2-(difluoromethyl)-1H-benzo[d]imidazole-4-carbonyl)-2-(4-cyclopropyl-2-hydroxyphenyl)-2,3,4,5,5a,6,8,9-octahydro-7H-1,2,5,7-tetraazabenzo[cd]azulen-7-yl)prop-2-en-1-one] are less than 0.0015 µM, 0.005 to 0.015 µM, 1 to 100 nM and more than 3000 nM.
As for `C=CC(=O)N1CCc2nn(-c3ccc(C4CCC4)cc3O)c3c2C(C1)N(C(=O)c1cnc(Cl)cc1N)CC3` (centres unmarked) [Compound 144, 1-(5-(4-amino-6-chloronicotinoyl)-2-(4-cyclobutyl-2-hydroxyphenyl)-2,3,4,5,5a,6,8,9-octahydro-7H-1,2,5,7-tetraazabenzo[cd]azulen-7-yl)prop-2-en-1-one], the AC50 is less than 0.0015 µM in assay [1], 0.0015 to 0.005 µM in assay [2], 1 to 100 nM in the assay on HCT116 cells and more than 3000 nM in the assay with HT29 cells.
In the same order, the values of `C=CC(=O)N1CCc2nn(-c3ccc(C4CCC4)cc3O)c3c2C(C1)N(C(=O)c1cnc2c(C)nn(C)c2c1)CC3` (centres unmarked) [Compound 145, 1-(2-(4-cyclobutyl-2-hydroxyphenyl)-5-(1,3-dimethyl-1H-pyrazolo[4,3-b]pyridine-6-carbonyl)-2,3,4,5,5a,6,8,9-octahydro-7H-1,2,5,7-tetraazabenzo[cd]azulen-7-yl)prop-2-en-1-one] are less than 0.0015 µM, 0.005 to 0.015 µM, 1 to 100 nM and more than 3000 nM.
In the same order, the values of `C=CC(=O)N1CCc2nn(-c3ccc(C4CCC4)cc3O)c3c2C(C1)N(C(=O)c1ccc(C(F)F)nc1N)CC3` (centres unmarked) [Compound 146, 1-(5-(2-amino-6-(difluoromethyl)nicotinoyl)-2-(4-cyclobutyl-2-hydroxyphenyl)-2,3,4,5,5a,6,8,9-octahydro-7H-1,2,5,7-tetraazabenzo[cd]azulen-7-yl)prop-2-en-1-one] are less than 0.0015 µM, 0.005 to 0.015 µM, 1 to 100 nM and more than 3000 nM.
In the same order, the values of `C=CC(=O)N1CCc2nn(-c3ccc(C4CCC4)cc3O)c3c2C(C1)N(C(=O)c1ccc(Br)c2nc(CCO)[nH]c12)CC3` (centres unmarked) [Compound 148, 1-(5-(4-bromo-2-(2-hydroxyethyl)-1H-benzo[d]imidazole-7-carbonyl)-2-(4-cyclobutyl-2-hydroxyphenyl)-2,3,4,5,5a,6,8,9-octahydro-7H-1,2,5,7-tetraazabenzo[cd]azulen-7-yl)prop-2-en-1-one] are less than 0.0015 µM, 0.005 to 0.015 µM, 1 to 100 nM and more than 3000 nM.
For `C=CC(=O)N1CCc2nn(-c3ccc(C4CCC4)cc3O)c3c2C(C1)N(C(=O)c1cnc(C(F)(F)F)cc1O)CC3` (centres unmarked) [Compound 149, 1-(2-(4-cyclobutyl-2-hydroxyphenyl)-5-(4-hydroxy-6-(trifluoromethyl)nicotinoyl)-2,3,4,5,5a,6,8,9-octahydro-7H-1,2,5,7-tetraazabenzo[cd]azulen-7-yl)prop-2-en-1-one], the AC50 was less than 0.0015 µM in assay [1], 0.005 to 0.015 µM in assay [2], 250 to 500 nM in the assay with HCT116 cells and more than 3000 nM with HT29 cells.
In the same order, the values of `C=CC(=O)N1CCc2nn(-c3ccc(C(C)C)cc3)c3c2C(C1)N(C(=O)c1cnc(C(F)(F)F)cc1N)CC3` (centres unmarked) [Compound 150, 1-(5-(4-amino-6-(trifluoromethyl)nicotinoyl)-2-(4-isopropylphenyl)-2,3,4,5,5a,6,8,9-octahydro-7H-1,2,5,7-tetraazabenzo[cd]azulen-7-yl)prop-2-en-1-one] are less than 0.0015 µM, 0.005 to 0.015 µM, 1 to 100 nM and more than 3000 nM.
In the same order, the values of `C=CC(=O)N1CCc2nn(-c3ccc(C45CC(C4)C5)cc3)c3c2C(C1)N(C(=O)c1ccc(C(F)(F)F)nc1N)CC3` (centres unmarked) [Compound 152, 1-(5-(2-amino-6-(trifluoromethyl)nicotinoyl)-2-(4-(bicyclo[1.1.1]pentan-1-yl)phenyl)-2,3,4,5,5a,6,8,9-octahydro-7H-1,2,5,7-tetraazabenzo[cd]azulen-7-yl)prop-2-en-1-one] are less than 0.0015 µM, 0.015 to 0.055 µM, 1 to 100 nM and more than 3000 nM.
In the same order, the values of `C=CC(=O)N1CCc2nn(-c3ccc(C4CCC4)cc3O)c3c2C(C1)N(C(=O)c1cc(O)c2scnc2c1)CC3` (centres unmarked) [Compound 153, 1-(2-(4-cyclobutyl-2-hydroxyphenyl)-5-(7-hydroxybenzo[d]thiazole-5-carbonyl)-2,3,4,5,5a,6,8,9-octahydro-7H-1,2,5,7-tetraazabenzo[cd]azulen-7-yl)prop-2-en-1-one] are less than 0.0015 µM, 0.0015 to 0.005 µM, 1 to 100 nM and more than 3000 nM.
On to `C=CC(=O)N1CCc2nn(-c3ccc(C4CCC4)cc3O)c3c2C(C1)N(C(=O)c1ccc(C(C)(F)F)nc1N)CC3` (centres unmarked) [Compound 155, 1-(5-(2-amino-6-(1,1-difluoroethyl)nicotinoyl)-2-(4-cyclobutyl-2-hydroxyphenyl)-2,3,4,5,5a,6,8,9-octahydro-7H-1,2,5,7-tetraazabenzo[cd]azulen-7-yl)prop-2-en-1-one], for which the AC50 in assay [1] was less than 0.0015 µM; in assay [2], 0.005 to 0.015 µM; in the assay with HCT116 cells it was 1 to 100 nM; with HT29 cells, more than 3000 nM.
In the same order, the values of `C=CC(=O)N1CC(OC)c2nn(-c3ccc(C4CCC4)cc3)c3c2C(C1)N(C(=O)c1cnc(C(F)(F)F)c(O)c1)CC3` (centres unmarked) [Compound 156, 1-(2-(4-cyclobutylphenyl)-5-(5-hydroxy-6-(trifluoromethyl)nicotinoyl)-9-methoxy-2,3,4,5,5a,6,8,9-octahydro-7H-1,2,5,7-tetraazabenzo[cd]azulen-7-yl)prop-2-en-1-one] are 0.0015 to 0.005 µM, 0.005 to 0.015 µM, 1 to 100 nM and more than 3000 nM.
In the same order, the values of `C=CC(=O)N1CCc2nn(-c3ccc(C4CCC4)cc3O)c3c2C(C1)N(C(=O)c1ccc(SC(F)(F)F)nc1)CC3` (centres unmarked) [Compound 157, 1-(2-(4-cyclobutyl-2-hydroxyphenyl)-5-(6-((trifluoromethyl)thio)nicotinoyl)-2,3,4,5,5a,6,8,9-octahydro-7H-1,2,5,7-tetraazabenzo[cd]azulen-7-yl)prop-2-en-1-one] are less than 0.0015 µM, 0.005 to 0.015 µM, 1 to 100 nM and more than 3000 nM.
On to `C=CC(=O)N1CCc2nn(-c3ccc(C4CCC4)cc3)c3c2C(C1)N(C(=O)c1ccc(Br)c2[nH]nc(N)c12)CC3` (centres unmarked) [Compound 158, 1-(5-(3-amino-7-bromo-1H-indazole-4-carbonyl)-2-(4-cyclobutylphenyl)-2,3,4,5,5a,6,8,9-octahydro-7H-1,2,5,7-tetraazabenzo[cd]azulen-7-yl)prop-2-en-1-one], for which the AC50 was less than 0.0015 µM in assay [1], 0.0015 to 0.005 µM in assay [2], 1 to 100 nM in the assay with HCT116 cells and more than 3000 nM with HT29 cells.
In the same order, the values of `C=CC(=O)N1CCc2nn(-c3ccc(C4CCC4)cc3O)c3c2C(C1)N(C(=O)c1ncc(C(F)(F)F)c(N)n1)CC3` (centres unmarked) [Compound 159, 1-(5-(4-amino-5-(trifluoromethyl)pyrimidine-2-carbonyl)-2-(4-cyclobutyl-2-hydroxyphenyl)-2,3,4,5,5a,6,8,9-octahydro-7H-1,2,5,7-tetraazabenzo[cd]azulen-7-yl)prop-2-en-1-one] are 0.0015 to 0.005 µM, 0.015 to 0.055 µM, 1 to 100 nM and more than 3000 nM.

These data come from patent US20250346600A1, “TRICYCLIC DERIVATIVES AND RELATED USES” (MOMA Therapeutics, Inc., priority 2023, published 2025).
